# Source: patent publication US10865203B2, “Ligands selective to alpha 6 subunit-containing GABAA receptors and their methods of use” (UWM Research Foundation, Inc., priority 2015, dated 2020)
# Tests used:
# [1] = Microsomal stability assay, human liver microsomes; type: in vitro ADME; settings: 10 μM test compound, 0.5 mg/mL protein, 37° C.
# Protocol: (§1) 4 μL of 1 mM test compound at a final concentration of 10 μM dissolved in DMSO/ACN/Methanol/Ethanol was preincubated at 37° C. for 5 minutes on a digital heating shaking dry bath (Fischer scientific, Pittsburgh, Pa.) in a mixture containing 282 μL of water, 80 μL of phosphate buffer (0.5 M, pH 7.4), 20 μL of NADPH Regenerating System Solution A (BD Bioscience, San Jose, Calif.) and 4 μL of NADPH Regenerating System Solution B (BD Bioscience, San Jose, Calif.) in a total volume of 391.2 μL. Following preincubation, the reaction was initiated by addition of 8.8 μL of either human liver microsomes (BD Gentest, San Jose, Calif.), mouse liver microsomes (Life technologies, Rockford, Ill.), at a protein concentration of 0.5 mg/mL. Aliquots of 50 μL were taken at time intervals of 0 (without microsomes), 10, 20, 30, 40, 50 and 60 minutes. Each aliquot was added to 100 μL of cold acetonitrile solution containing 1 μM/2 μM internal standard. This was followed by sonication for 10 seconds and centrifugation at 10,000 rpm for 5 minutes. 100 μL of the supernatant was transferred into Spin-X HPLC filter tubes (Corning Incorporated, NY) and centrifuged at 13,000 rpm for 5 minutes. […] The ratio of the peak areas of the internal standard and test compound was calculated for every time point and the natural log of the ratio were plotted against time to determine the linear slope (k). […] All experiments were repeated three times in duplicates.
# [2] = Microsomal stability assay, mouse liver microsomes; type: in vitro ADME; settings: 10 μM test compound, 0.5 mg/mL protein, 37° C.; for half-life at 10 μM: mouse, liver microsomes, pH 7.4, read-out: Half-life (min) (MLM)
# Protocol: as §1
# HEPG2 cell line = assay: Cytotoxicity study, CellTiter-Glo cell viability; type: cell-based, Human; settings: HEPG2, 48 hours incubation
# Protocol: Reagents and Instrumentation: Human liver hepatocellular carcinoma (HEPG2) cell line was purchased (ATCC) and cultured in 75 cm2 flasks (CellStar). Cells were grown in DMEM/High Glucose (Hyclone, #SH3024301) media to which non-essential amino acids (Hyclone, #SH30238.01), 10 mM HEPES (Hyclone, #SH302237.01), 5×106 units of penicillin and streptomycin (Hyclone, #SV30010), and 10% of heat inactivated fetal bovine serum (Gibco, #10082147) were added. Cells were harvested using 0.05% Trypsin (Hyclone, #SH3023601), which disrupts the cell monolayer and proteolytically cleaves the bonds between the cells and flask. The cell viability assay was evaluated using CellTiter-Glo™ Luminescent Cell Viability Assay Kit (Promega, Madison, Wis.) which contains luciferase and all its substrate except ATP. The controls for the cytotoxicity assay used were (E)-10-(bromotriphenylphosphoranyl)decyl 4-(4-(tert-butyl)phenyl)-4-oxobut-2-enoate (400 μM in DMSO, positive control) and DMSO (negative control). Cell culture was performed in a Baker Company Class II Biological Safety Cabinet. All luminescence readings were performed on a Tecan Infinite M1000 plate reader. Small volume transfers were performed on the Tecan Freedom EVO liquid handling system with a 100 nL pin tool transfer (V&P Scientific). Serial dilutions were done in 96-well polypropylene plates (Corning, #3365) and assays were conducted in 384-well white optical bottom plates.
# Luminescence-Based VDR-Mediated Transcription Assay Protocol: After 48 hours of incubation at 37 °C with 5% CO2, the cells were harvested with 4 mL of 0.05% Trypsin, added to 10 mL of the assay buffer, DMEM/High Modified buffer without phenol red, and spun down for 3 minutes at 1000 rpm. The media was removed and cells were resuspended in the DMEM assay media. To each well, 40 μL of cells were added to yield a final concentration of 15,000 cells per well. The plates were then spun down for 2 minutes at 1000 rpm. After 2 hours, plated cells were treated with 100 nL×4 of small molecules and controls which were added using the pin tool. After 48 hours of incubation at 37 °C with 5% CO2, 20 μL of Cell Titer-Glo™ Luminescence Assay Kit (cytotoxicity assay) were added and luminescence was read. Controls were measured within each plate to determine the z′ factor (Equation 1) and to enable data normalization. Three independent experiments were performed in quadruplicate and data was analyzed using nonlinear regression with variable slope (GraphPrism, Equation 2). The luminescence intensity of control (untreated) cells was taken as 100% viability, and the relative cell viability compared to control was calculated. Data are presented as the means±SEM of a series of three experiments.
# [3] = test system: METH-impaired PPI in C57/B6 mice; assay: PPI test, methamphetamine-impaired prepulse inhibition; type: in vivo, mouse; settings: mice, compound 10 mg/kg i.p. 15 min before METH 2 mg/kg i.p.
# Protocol: All animal experiments conducted at NTU were approved by the Institutional Animal Care and Use Committee of College of Medicine, National Taiwan University. C57/B6 (8-10 weeks) mice were used for the PPI test and Wistar rats (8-9 weeks) were used in the migraine model. Animals were housed in an animal room with a 12-h light/12-h dark cycle and free access to food and water.
# The PPI test was conducted with a PPI apparatus (SR-LAB, San Diego Instruments, San Diego, Calif.) consisting of a startle chamber equipped with various programming acoustic stimulations. After acclimation, the mouse was gently placed in the startle chamber for a 4 min acclimation period with a background noise of 65 dB, which continued throughout the whole PPI test session. One PPI test session consisted of 4 types of startle trials, including the trial with the startle pulse (115 dB) alone (PULSEALONE; 115 dB, 20 ms), two trials with the startle pulse paired with 71 and 77 dB prepulses, respectively (PREPULSE+PULSE; 71 dB+115 dB and 77 dB+115 dB), and the trial without stimulus (NOSTIM; background 65 dB only). A test session started and ended, respectively, with four NOSTIM trials and four PULSEALONE trials. In between, each of the four types of trials was presented 14 times randomly, that is, 56 trials were given in a test session. The intertrial interval was given randomly from 5 to 20 s. In the PREPULSE+PULSE trial, a 71 or 77 dB prepulse was given 120 ms before the 115 dBpulse. The magnitude of PPI (PPI %) was determined, after summarizing the startle responses in PULSEALONE and PREPULSE+PULSE trials, according to the equation (PULSEALON−PREPULSE+PULSE)/PULSEALONE×100%. The tested compound or vehicle was given to the animal for 15 min, followed by methamphetamine (2 mg/kg). The PPI test was conducted 10 min after injection of methamphetamine. Data were expressed as the mean±S.E.M. Statistical comparisons among groups were analyzed by ANOVA with Tukey post hoc test, and differences between groups were analyzed by Student's t-test. Two-way ANOVA with Bonferroni's post hoc test was used to analyze differences in the time courses of locomotor activity among groups. Differences were considered significant if P<0.05.
# Methamphetamine and apomorphine were dissolved in normal saline for i.p. And s.c. Injections, respectively. Tested compounds and haloperidol, when given by i.p. Injection, were dissolved in a vehicle containing 20% dmso, 20% Cremophor® el (polyoxyethylene castor, sigma-aldrich) and 60% normal saline. Furosemide was dissolved (20 nmole/μL) in dimethylsulfoxide for intra-cerebellar microinjection the i.p. or s.c. Injection volume was 10 mL/kg.
# [4] = Solubility of compounds in DI water; type: physicochemical; settings: thermodynamic from solid; 2 mg in 2 mL DI water, sonicated at 60° C. for 2 hours, cooled to room temperature, filtered
# Protocol: The solubility of the compounds was examined by sonicating 2 mg of each respective compound in 2 mL of DI water at 60° C. for 2 hours. Solutions were cooled to room temperature and then filtered using a syringe filter. The resultant solutions were injected into a mass spectrometer using a SIM method, calibrated to the respective retention times and mass units of each compound. Calibration curves using standard solutions (5 data points) of each compound dissolved in methanol were used to calculate the unknown aqueous concentrations of each compound.
# [5] = Half-life in liver microsomes (Example 4); type: in vitro ADME; settings: rat and human liver microsomes, species of the value not stated
# From the text: Metabolic pathways that may disrupt the activity of compounds with aryl methoxy groups were investigated.
SMILES,% left after 1 hr. (HLM) [1] [%],Half-life (min) (HLM) [1],% left after 1 hr. (MLM) [2] [%],half-life at 10 μM [2] [min],toxicity at 400 μM (HEPG2 cell line),rescue of METH-impaired PPI [3],solubility at 2 h [4] [µg/mL],Half-life (min) (MLM) [2],"half-life at 10 μM ([1]; human, liver microsomes, pH 7.4, read-out: Half-life (min) (HLM))",half-life [5] [h],rescue of METH-impaired PPI ([3]; listed as 1-29)
"[2H]C([2H])([2H])Oc1cccc(-n2nc3c4cc(Cl)ccc4[nH]cc-3c2=O)c1 [DK-I-59-1, 8-Chloro-2-(3-methoxy-d3-phenyl)-2,5-dihydro-3H-pyrazolo[4,3-c]quinolin-3-one]",93 ± 0.09,649 ± 81,76.6 ± 0.11,166 ± 7.5,non-toxic,effective,,,,,
"[2H]C([2H])([2H])Oc1ccc(-n2nc3c4ccc(Br)cc4[nH]cc-3c2=O)cc1 [DK-I-58-1, 7-Bromo-2-(4-methoxy-d3-phenyl)-2,5-dihydro-3H-pyrazolo[4,3-c]quinolin-3-one]",81.5 ± 0.11,204.6 ± 10,73.8 ± 0.15,140 ± 7.18,non-toxic,,9.2,,,,
"COc1ccc(-n2nc3c4ccc(Br)cc4[nH]cc-3c2=O)cn1 [DK-II-48-1, 7-Bromo-2-(6-methoxypyridin-3-yl)-2,5-dihydro-3H-pyrazolo[4,3-c]quinolin-3-one]",93.4 ± 0.11,727.7 ± 115,93.12 ± 0.22,,non-toxic,,,680.6 ± 114,,,
"[2H]C([2H])([2H])Oc1ccc2c3nn(-c4ccc(OC)cc4)c(=O)c-3c[nH]c2c1 [RV-I-029, 7-Methoxy-d3-2-(4-methoxyphenyl)-2,5-dihydro-3H-pyrazolo[4,3-c]quinolin-3-one]",95.35 ± 1,,93.17 ± 016,,,,,857.8 ± 235,2970 ± 742,> 50,effective
"[2H]C([2H])([2H])Oc1ccc(-n2nc3c4ccc(OC([2H])([2H])[2H])cc4[nH]cc-3c2=O)cc1 [DK-I-60-3, 7-Methoxy-d3-2-(4-methoxy-d3-phenyl)-2,5-dihydro-3H-pyrazolo[4,3-c]quinolin-3-one]",91.51 ± 0.18,780.73 ± 238,93.08 ± 0.19,,non-toxic,,16,846.85 ± 276,,,
